Laboratory results reported in ChEMBL document CHEMBL4340534 (Bioorg Med Chem Lett, 2019).
Values after ≈ are worked out from the molar mass of the structure shown. Active and inactive are the calls of the source. The rule behind the calls is not given here.

Legend:
[1] = target: Sodium channel protein type 5 subunit alpha (Homo sapiens, UniProt Q14524); experiment: Inhibition of human NaV1.5 expressed in HEK293 cells assessed as decrease in sodium current amplitude at -120 mV holding potential by Qpatch assay; type: ADME, cell-based
Escherichia coli [2] = experiment: Antibacterial activity against tolC deficient Escherichia coli Top10; type: functional
Acinetobacter baumannii = experiment: Antibacterial activity against Acinetobacter baumannii BM4454; type: functional
DNA gyrase = DNA gyrase (Escherichia coli, UniProt P0AES4+P0AES6); experiment: Inhibition of Escherichia coli his-tagged DNA gyrase supercoiling activity using pBR322 DNA in presence of ATP incubated for 1 hr by H19 dye based high throughput DNA gyrase assay; type: protein-complex assay
[3] = Cytotoxicity against mouse L5178Y cells (TK +/-) assessed as reduction in cell viability incubated for 72 hrs by Cell Titer-Glo assay
Escherichia coli [4] = experiment: Antibacterial activity against tolC deficient Escherichia coli Top10 harboring GyrB E793K mutant; type: functional
Escherichia coli [5] = experiment: Antibacterial activity against Escherichia coli 7623; type: functional
Escherichia coli [6] = experiment: Antibacterial activity against tolC deficient Escherichia coli 7623; type: functional
Escherichia coli [7] = experiment: Inhibition of Escherichia coli DNA topoisomerase 4 assessed as induction of enzyme-mediated DNA cleavage breaks
[8] = Inhibition of Escherichia coli DNA topoisomerase 4 using interlinked kDNA as substrate after 30 mins by ethidium bromide staining-based agarose gel electrophoresis method
Pseudomonas aeruginosa = experiment: Antibacterial activity against Pseudomonas aeruginosa; type: functional
[9] = target: DNA gyrase (Klebsiella pneumoniae) (UniProt W1DID1+A0A080SQT2); experiment: Inhibition of Klebsiella pneumoniae DNA gyrase assessed as increase in single and double strand DNA cleavage products; type: protein-complex assay
Klebsiella pneumoniae = experiment: Antibacterial activity against Klebsiella pneumoniae 1161486; type: functional
[10] = target: DNA topoisomerase 2-alpha (Homo sapiens, UniProt P11388); experiment: Inhibition of human DNA topoisomerase 2 alpha using interlinked kDNA as substrate after 30 mins by ethidium bromide staining-based agarose gel electrophoresis method
Sequence of DNA topoisomerase 2-alpha (P11388 whole entry): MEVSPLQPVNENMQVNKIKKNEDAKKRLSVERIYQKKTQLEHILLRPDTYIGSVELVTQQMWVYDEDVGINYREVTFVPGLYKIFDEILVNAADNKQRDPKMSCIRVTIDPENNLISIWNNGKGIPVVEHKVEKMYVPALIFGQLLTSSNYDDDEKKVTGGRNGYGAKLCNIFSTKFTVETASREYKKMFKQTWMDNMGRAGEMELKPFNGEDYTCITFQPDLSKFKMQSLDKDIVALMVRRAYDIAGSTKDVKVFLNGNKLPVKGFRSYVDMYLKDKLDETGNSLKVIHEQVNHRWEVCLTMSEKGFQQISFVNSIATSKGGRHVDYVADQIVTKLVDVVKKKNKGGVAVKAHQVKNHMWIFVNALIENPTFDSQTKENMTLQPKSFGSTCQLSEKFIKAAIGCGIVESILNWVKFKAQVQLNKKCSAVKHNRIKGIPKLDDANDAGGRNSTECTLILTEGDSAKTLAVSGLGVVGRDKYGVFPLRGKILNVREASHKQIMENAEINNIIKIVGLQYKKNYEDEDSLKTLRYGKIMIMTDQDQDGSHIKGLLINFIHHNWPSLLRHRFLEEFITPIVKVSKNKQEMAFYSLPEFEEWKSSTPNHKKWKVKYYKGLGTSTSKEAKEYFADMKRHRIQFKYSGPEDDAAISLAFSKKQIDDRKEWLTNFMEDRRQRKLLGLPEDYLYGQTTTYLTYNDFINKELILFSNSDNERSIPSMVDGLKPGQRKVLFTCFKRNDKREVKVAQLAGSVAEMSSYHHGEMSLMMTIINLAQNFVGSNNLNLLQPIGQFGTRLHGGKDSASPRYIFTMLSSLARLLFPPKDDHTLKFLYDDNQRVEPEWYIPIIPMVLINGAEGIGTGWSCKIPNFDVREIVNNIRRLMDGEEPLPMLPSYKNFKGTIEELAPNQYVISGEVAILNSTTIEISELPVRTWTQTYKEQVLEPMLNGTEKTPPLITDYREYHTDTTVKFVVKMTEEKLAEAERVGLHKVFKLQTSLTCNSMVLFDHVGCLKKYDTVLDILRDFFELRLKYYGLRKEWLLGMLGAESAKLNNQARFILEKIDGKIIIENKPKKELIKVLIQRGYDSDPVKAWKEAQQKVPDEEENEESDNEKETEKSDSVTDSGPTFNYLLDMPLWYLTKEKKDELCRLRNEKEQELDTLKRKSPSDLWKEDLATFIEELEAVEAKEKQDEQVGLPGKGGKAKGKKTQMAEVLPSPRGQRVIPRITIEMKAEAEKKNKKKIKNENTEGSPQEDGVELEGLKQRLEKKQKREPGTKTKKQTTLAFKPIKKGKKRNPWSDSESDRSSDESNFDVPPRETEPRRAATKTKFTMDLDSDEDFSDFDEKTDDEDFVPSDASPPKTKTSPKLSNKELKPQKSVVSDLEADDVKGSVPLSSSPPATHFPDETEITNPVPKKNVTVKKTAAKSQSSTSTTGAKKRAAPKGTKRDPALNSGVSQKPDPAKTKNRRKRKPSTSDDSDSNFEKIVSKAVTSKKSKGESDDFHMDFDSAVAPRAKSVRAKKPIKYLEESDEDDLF

Sequence of Sodium channel protein type 5 subunit alpha (Q14524 whole entry): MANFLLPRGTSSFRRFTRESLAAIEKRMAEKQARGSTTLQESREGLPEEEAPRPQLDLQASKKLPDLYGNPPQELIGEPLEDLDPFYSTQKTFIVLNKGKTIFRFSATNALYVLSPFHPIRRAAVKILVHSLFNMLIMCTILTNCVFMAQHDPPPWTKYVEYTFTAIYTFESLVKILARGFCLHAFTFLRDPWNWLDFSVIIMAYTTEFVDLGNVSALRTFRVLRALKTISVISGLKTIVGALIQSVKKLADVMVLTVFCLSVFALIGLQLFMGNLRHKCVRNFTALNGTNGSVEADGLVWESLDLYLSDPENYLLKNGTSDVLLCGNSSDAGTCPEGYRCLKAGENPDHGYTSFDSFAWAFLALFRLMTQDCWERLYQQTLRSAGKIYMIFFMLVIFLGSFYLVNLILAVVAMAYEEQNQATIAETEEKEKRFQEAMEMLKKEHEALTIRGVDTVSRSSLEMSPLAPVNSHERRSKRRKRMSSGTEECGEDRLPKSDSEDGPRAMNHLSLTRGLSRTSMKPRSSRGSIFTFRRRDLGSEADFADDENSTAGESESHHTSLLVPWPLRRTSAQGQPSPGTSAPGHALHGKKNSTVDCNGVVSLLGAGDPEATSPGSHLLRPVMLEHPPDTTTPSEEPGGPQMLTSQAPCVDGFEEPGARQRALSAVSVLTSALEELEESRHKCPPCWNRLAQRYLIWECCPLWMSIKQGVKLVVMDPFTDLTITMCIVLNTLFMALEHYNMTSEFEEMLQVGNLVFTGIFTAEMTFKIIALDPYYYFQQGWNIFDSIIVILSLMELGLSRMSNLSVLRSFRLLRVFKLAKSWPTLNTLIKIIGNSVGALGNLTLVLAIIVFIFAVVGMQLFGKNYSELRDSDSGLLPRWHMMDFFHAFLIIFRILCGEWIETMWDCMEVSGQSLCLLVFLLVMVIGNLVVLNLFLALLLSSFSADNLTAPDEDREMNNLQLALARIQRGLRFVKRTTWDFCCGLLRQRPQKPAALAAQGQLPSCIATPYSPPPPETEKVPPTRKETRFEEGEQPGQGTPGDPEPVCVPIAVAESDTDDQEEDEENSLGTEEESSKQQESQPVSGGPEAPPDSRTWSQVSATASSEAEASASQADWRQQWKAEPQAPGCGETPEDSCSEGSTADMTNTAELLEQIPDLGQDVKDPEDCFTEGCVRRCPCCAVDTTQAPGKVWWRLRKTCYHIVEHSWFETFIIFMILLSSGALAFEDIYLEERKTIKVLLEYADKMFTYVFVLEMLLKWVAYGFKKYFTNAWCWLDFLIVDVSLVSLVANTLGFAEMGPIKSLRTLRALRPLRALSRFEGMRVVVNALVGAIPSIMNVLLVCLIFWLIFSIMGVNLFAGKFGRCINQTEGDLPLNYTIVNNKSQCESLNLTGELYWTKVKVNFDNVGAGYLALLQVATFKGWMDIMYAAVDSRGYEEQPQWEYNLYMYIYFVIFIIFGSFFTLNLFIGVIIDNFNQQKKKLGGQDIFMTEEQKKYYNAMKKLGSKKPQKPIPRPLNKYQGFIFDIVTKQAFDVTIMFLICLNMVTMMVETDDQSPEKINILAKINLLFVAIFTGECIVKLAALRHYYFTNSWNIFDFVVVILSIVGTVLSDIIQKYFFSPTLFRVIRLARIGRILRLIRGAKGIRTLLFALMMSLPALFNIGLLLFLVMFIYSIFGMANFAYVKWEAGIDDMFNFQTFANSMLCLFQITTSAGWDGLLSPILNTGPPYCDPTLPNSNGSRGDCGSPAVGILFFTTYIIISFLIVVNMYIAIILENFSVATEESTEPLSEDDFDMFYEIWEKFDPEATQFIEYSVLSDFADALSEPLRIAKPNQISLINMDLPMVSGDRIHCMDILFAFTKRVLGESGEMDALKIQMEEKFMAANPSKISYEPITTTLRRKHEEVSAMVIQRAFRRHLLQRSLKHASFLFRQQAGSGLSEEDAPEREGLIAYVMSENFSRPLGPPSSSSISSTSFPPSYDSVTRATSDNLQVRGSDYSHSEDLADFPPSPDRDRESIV

| SMILES | IC50 [1] [µM] | MIC (Escherichia coli [2]) [µg/mL] | MIC (Acinetobacter baumannii) [µg/mL] | IC50 (DNA gyrase) [µM] | CC50 at 72 h ([3]; l5178y) [µg/mL] | MIC (Escherichia coli [4]) [µg/mL] | MIC (Escherichia coli [5]) [µg/mL] | MIC (Escherichia coli [6]) [µg/mL] | inhibition (Escherichia coli [7]) | IC50 [8] [µM] | MIC (Pseudomonas aeruginosa) [µg/mL] | inhibition [9] | MIC (Klebsiella pneumoniae) [µg/mL] | IC50 [10] [µM] | CC50 at 72 h ([3]; L5178Y cells (TK +/-)) [µg/mL] |
| --- | --- | --- | --- | --- | --- | --- | --- | --- | --- | --- | --- | --- | --- | --- | --- |
| NC[C@H](Oc1noc2ccc(-c3ccccc3Cl)nc12)c1ccccc1 | 16 | 8 (≈ 21.9 µM) | > 128 | 1.6 | 5 (≈ 13.7 µM) | 16 (≈ 43.7 µM) | > 128 | 4 (≈ 10.9 µM) |  |  |  |  |  |  |  |
| NC[C@H](Oc1noc2ccc(-c3ccccc3Cl)cc12)c1ccccc1 | 22 | ≤ 0.125 | 8 (≈ 21.9 µM) | 0.16 | 10 (≈ 27.4 µM) | 2 (≈ 5.48 µM) | 8 to 16 (≈ 21.9 to 43.9 µM) | ≤ 0.125 | Active | 90 | ≥ 128 | Active | ≥ 128 | 210 |  |
| N=C(N)NC[C@H](Oc1noc2ccc(-c3ccccc3Cl)cc12)c1ccccc1 |  | 0.25 (≈ 0.614 µM) | 4 (≈ 9.83 µM) | 0.16 | 11 (≈ 27 µM) | 0.5 (≈ 1.23 µM) | 8 (≈ 19.7 µM) | 0.25 (≈ 0.614 µM) |  |  | 16 (≈ 39.3 µM) |  | 16 (≈ 39.3 µM) |  |  |
| NC[C@@H](c1ccccc1)n1cnc2c(-c3ccccc3Cl)csc2c1=O |  | 2 (≈ 5.24 µM) | > 128 | 2 |  | 16 (≈ 41.9 µM) | > 128 | 2 to 4 (≈ 5.24 to 10.5 µM) |  |  |  |  | > 128 |  | 16 (≈ 41.9 µM) |
| NC[C@H](Oc1n[nH]c2ccc(-c3ccccc3Cl)cc12)c1ccccc1 |  | 2 (≈ 5.5 µM) | 32 (≈ 87.9 µM) | 1.6 |  | 2 (≈ 5.5 µM) | 32 (≈ 87.9 µM) | 2 (≈ 5.5 µM) |  |  |  |  | 32 (≈ 87.9 µM) |  | 3 (≈ 8.25 µM) |
| Cn1nc(O[C@@H](CN)c2ccccc2)c2cc(-c3ccccc3Cl)ccc21 |  | 2 (≈ 5.29 µM) | 64 (≈ 169 µM) | 5 |  | 2 (≈ 5.29 µM) | > 128 | 2 (≈ 5.29 µM) |  |  |  |  | > 128 |  |  |
| NC[C@H](Oc1noc2ncc(-c3ccccc3Cl)cc12)c1ccccc1 | 24 | 1 (≈ 2.73 µM) | 64 (≈ 175 µM) | 0.5 |  | 16 (≈ 43.7 µM) | 64 (≈ 175 µM) | 1 (≈ 2.73 µM) |  |  |  |  |  |  | 20 (≈ 54.7 µM) |
| NCC(Nc1n[nH]c2ccc(-c3ccccc3Cl)cc12)c1ccccc1 (configuration not stated) |  | 4 (≈ 11 µM) | 64 (≈ 176 µM) | 3.2 |  | 4 (≈ 11 µM) | 128 (≈ 353 µM) | 4 (≈ 11 µM) |  |  |  |  | 64 (≈ 176 µM) |  | 5 (≈ 13.8 µM) |
| NC[C@H](Nc1nccc2ccc(-c3ccccc3Cl)cc12)c1ccccc1 |  | 2 (≈ 5.35 µM) | 32 (≈ 85.6 µM) | 10 |  | 2 (≈ 5.35 µM) | 64 (≈ 171 µM) | 2 (≈ 5.35 µM) |  |  |  |  | 32 (≈ 85.6 µM) |  | 3 (≈ 8.02 µM) |
| Cn1nc(NC(CN)c2ccccc2)c2cc(-c3ccccc3Cl)ccc21 (configuration not stated) |  | 4 (≈ 10.6 µM) | 128 (≈ 340 µM) | 7.9 |  | 4 (≈ 10.6 µM) | > 128 | 4 (≈ 10.6 µM) |  |  |  |  | > 128 |  | 5 (≈ 13.3 µM) |
| NCC(Oc1noc2ccc(-c3ccccc3Cl)cc12)c1ccccn1 (configuration not stated) |  | 0.25 (≈ 0.683 µM) | 32 (≈ 87.5 µM) | 0.5 |  | 8 (≈ 21.9 µM) | 64 (≈ 175 µM) | 0.25 (≈ 0.683 µM) |  |  |  |  |  |  | 3 (≈ 8.2 µM) |
| Cc1sc(-c2ccccc2Cl)cc1C(=O)N[C@@H](CN)c1ccccc1 | 13 | ≤ 0.125 | 4 (≈ 10.8 µM) | 0.04 | 5 (≈ 13.5 µM) | 4 (≈ 10.8 µM) | 8 (≈ 21.6 µM) | ≤ 0.125 |  |  |  |  | 32 (≈ 86.3 µM) |  |  |
